Reference: PMC11830721 (Frontiers in Pharmacology, 2025)

Molecular target: T1, FLT3-ITD (Homo sapiens, UniProt P36888, ITD)
T1 sequence (P36888 27-993): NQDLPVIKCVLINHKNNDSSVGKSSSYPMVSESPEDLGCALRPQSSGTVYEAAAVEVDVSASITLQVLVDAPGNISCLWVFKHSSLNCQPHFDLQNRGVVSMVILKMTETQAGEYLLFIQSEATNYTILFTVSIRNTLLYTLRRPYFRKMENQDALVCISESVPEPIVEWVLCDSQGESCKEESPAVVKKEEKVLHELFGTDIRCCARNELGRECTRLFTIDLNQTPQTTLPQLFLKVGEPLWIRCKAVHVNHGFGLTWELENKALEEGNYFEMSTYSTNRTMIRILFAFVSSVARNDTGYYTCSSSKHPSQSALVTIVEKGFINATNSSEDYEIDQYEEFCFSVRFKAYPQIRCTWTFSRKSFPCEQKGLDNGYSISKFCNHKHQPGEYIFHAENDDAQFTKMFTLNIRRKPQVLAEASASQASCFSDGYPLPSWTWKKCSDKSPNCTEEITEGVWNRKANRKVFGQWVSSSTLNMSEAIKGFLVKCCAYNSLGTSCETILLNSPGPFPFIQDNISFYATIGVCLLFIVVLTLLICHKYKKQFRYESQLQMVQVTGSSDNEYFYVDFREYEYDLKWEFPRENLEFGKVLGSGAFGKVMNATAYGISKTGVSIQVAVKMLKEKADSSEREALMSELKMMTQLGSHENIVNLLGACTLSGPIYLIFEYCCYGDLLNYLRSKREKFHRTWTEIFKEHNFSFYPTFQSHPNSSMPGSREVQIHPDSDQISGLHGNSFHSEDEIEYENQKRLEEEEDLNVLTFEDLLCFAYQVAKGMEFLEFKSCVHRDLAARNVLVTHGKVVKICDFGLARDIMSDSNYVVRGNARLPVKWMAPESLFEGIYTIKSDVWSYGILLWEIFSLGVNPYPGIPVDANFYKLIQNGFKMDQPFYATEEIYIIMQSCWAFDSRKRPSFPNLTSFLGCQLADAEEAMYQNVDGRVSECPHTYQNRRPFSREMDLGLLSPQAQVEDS
Test: ADP-Glo kinase-inhibition assay
Type: biochemical
Conditions: ADP-Glo; ATP 100 μM; FLT3-ITD 10 ng/μL
Method: Subsequently, the kinase detection reagent was added and incubated for an additional 15 min. Finally, the mixture was incubated for 1 h, and relative luminescence units (RLU) were measured.
Moreover, we extended the kinase selectivity profiling of FLIN-4 to evaluate its inhibitory activity against 60 non-target kinases.

| IC50 [nM] | Structure (SMILES) |
| --- | --- |
| 10.2 ± 0.81 | CCc1nc(C(N)=O)c(Nc2ccc(N3CCC(NC4CC4)CC3)c(OC)c2)nc1NC1CCOC(C(O)CO)C1 (stereo not drawn) [FLIN-1] |
| 4.98 ± 0.35 | CCc1nc(C(N)=O)c(Nc2ccc(N3CCC(NC4CCCC4)CC3)c(OC)c2)nc1NC1CCOC(C(O)CO)C1 (stereo not drawn) [FLIN-2] |
| 2.85 ± 0.22 | CCc1nc(C(N)=O)c(Nc2ccc(N3CCC(NC4CCCCC4)CC3)c(OC)c2)nc1NC1CCOC(C(O)CO)C1 (stereo not drawn) [FLIN-3] |
| 14.5 ± 0.98 | CCCNC1CCN(c2ccc(Nc3nc(NC4CCOC(C(O)CO)C4)c(CC)nc3C(N)=O)cc2OC)CC1 (stereo not drawn) [FLIN-5] |
| 6.39 ± 0.47 | CCc1nc(C(N)=O)c(Nc2ccc(N3CCC(NC(CC)CC)CC3)c(OC)c2)nc1NC1CCOC(C(O)CO)C1 (stereo not drawn) [FLIN-6] |

Tested on: MV4-11 cells
Test: MTT anti-proliferation assay, MV4-11
Type: cell-based
Conditions: Homo sapiens, 72-h treatment
Method: In addition, the normal hematopoietic cell line was COLO 829BL from ATCC. The cells were maintained in RPMI-1640 medium supplemented with 10% FBS, and 1% penicillin and streptomycin. The cells were cultured in an incubator at 37°C with 5% CO2. […] The high-performance liquid chromatography (HPLC) spectra data for each compound are provided in the (Supplementary Figures S1–S6).
The effects of the test compounds on MV4-11, NB4, and COLO 829BL cell lines were quantitatively evaluated according to the methods previously reported ([Zhou et al., 2022]).

| IC50 [nM] | Structure (SMILES) |
| --- | --- |
| 12.2 ± 0.94 | CCc1nc(C(N)=O)c(Nc2ccc(N3CCC(NC4CC4)CC3)c(OC)c2)nc1NC1CCOC(C(O)CO)C1 (stereo not drawn) [FLIN-1] |
| 5.54 ± 0.41 | CCc1nc(C(N)=O)c(Nc2ccc(N3CCC(NC4CCCC4)CC3)c(OC)c2)nc1NC1CCOC(C(O)CO)C1 (stereo not drawn) [FLIN-2] |
| 3.03 ± 0.27 | CCc1nc(C(N)=O)c(Nc2ccc(N3CCC(NC4CCCCC4)CC3)c(OC)c2)nc1NC1CCOC(C(O)CO)C1 (stereo not drawn) [FLIN-3] |
| 17.7 ± 1.03 | CCCNC1CCN(c2ccc(Nc3nc(NC4CCOC(C(O)CO)C4)c(CC)nc3C(N)=O)cc2OC)CC1 (stereo not drawn) [FLIN-5] |
| 8.28 ± 0.54 | CCc1nc(C(N)=O)c(Nc2ccc(N3CCC(NC(CC)CC)CC3)c(OC)c2)nc1NC1CCOC(C(O)CO)C1 (stereo not drawn) [FLIN-6] |

Molecular target: T1, FLT3-ITD
Test: Microscale thermophoresis (MST) binding affinity
Conditions: 50 mM Tris, 230 mM NaCl, pH 7.0, labeled protein 50 nM
Method: The protein was labeled with a fluorescence tag utilizing a Lys Labeling Kit (NanoTemper), with a final concentration of 50 nM being achieved. Adhering to the manufacturer’s guidelines, the compounds were titrated from an initial concentration of 12.5 μM with a 1:1 dilution ratio. Next, each sample was centrifuged at 15,000 rpm for 5 min, followed by loading into standard glass capillaries for MST analysis.

| Kd [nM] | Structure (SMILES) |
| --- | --- |
| 8.74 ± 0.52 | CCc1nc(C(N)=O)c(Nc2ccc(N3CCC(NC4CC4)CC3)c(OC)c2)nc1NC1CCOC(C(O)CO)C1 (stereo not drawn) [FLIN-1] |
| 3.62 ± 0.41 | CCc1nc(C(N)=O)c(Nc2ccc(N3CCC(NC4CCCC4)CC3)c(OC)c2)nc1NC1CCOC(C(O)CO)C1 (stereo not drawn) [FLIN-2] |
| 2.19 ± 0.33 | CCc1nc(C(N)=O)c(Nc2ccc(N3CCC(NC4CCCCC4)CC3)c(OC)c2)nc1NC1CCOC(C(O)CO)C1 (stereo not drawn) [FLIN-3] |
| 12.5 ± 1.05 | CCCNC1CCN(c2ccc(Nc3nc(NC4CCOC(C(O)CO)C4)c(CC)nc3C(N)=O)cc2OC)CC1 (stereo not drawn) [FLIN-5] |
| 5.26 ± 0.42 | CCc1nc(C(N)=O)c(Nc2ccc(N3CCC(NC(CC)CC)CC3)c(OC)c2)nc1NC1CCOC(C(O)CO)C1 (stereo not drawn) [FLIN-6] |
